“And” between values parts separate entries of the source, which are not always exact repeats. Identical values can stand only once.
Assay: mn = molality of the nth substance listed, in mol/kg
Conditions: 101 kPa, Liquid; for speed of sound: Sing-around technique in a fixed-path interferometer; for mass density: Vibrating tube method; for viscosity: Capillary tube (Ostwald / Ubbelohde) method

O=C([O-])CC(O)(CC(=O)[O-])C(=O)[O-].[K+].[K+].[K+] [potassium citrate] + O
Conditions | mass density [kg/m3] | speed of sound | viscosity
293.15 K, m1 = 0.0472 | 1007.81 | 1492.8 m/s | –
293.15 K, m1 = 0.0566 | 1009.7 | 1494.6 m/s | –
293.15 K, m1 = 0.066 | 1011.58 | 1496.5 m/s | –
293.15 K, m1 = 0.0754 | 1013.45 | 1498.3 m/s | –
293.15 K, m1 = 0.0849 | 1015.34 | 1500.2 m/s | –
293.15 K, m1 = 0.0943 | 1017.2 | 1502.1 m/s | –
293.15 K, m1 = 0.2984 | 1055.65 | 1540.4 m/s | –
293.15 K, m1 = 0.3971 | 1073.05 | 1558.2 m/s | –
293.15 K, m1 = 0.4955 | 1089.85 | 1576 m/s | –
293.15 K, m1 = 0.5936 | 1106.03 | 1593.3 m/s | –
293.15 K, m1 = 0.7877 | 1136.49 | 1626.4 m/s | –
293.15 K, m1 = 0.9823 | 1165.2 | 1658.6 m/s | –
293.15 K, m1 = 1.175 | 1191.92 | 1689.6 m/s | –
293.15 K, m1 = 1.366 | 1216.69 | 1718.7 m/s | –
293.15 K, m1 = 1.555 | 1239.9 | 1746.2 m/s | –
293.15 K, m1 = 1.837 | 1272.28 | 1784.9 m/s | –
298.15 K, m1 = 0.0472 | 1006.59 | 1506.6 m/s | 1.027 mPa·s and 0.911 mPa·s
298.15 K, m1 = 0.0566 | 1008.46 | 1508.5 m/s | 0.918 mPa·s and 1.027 mPa·s
298.15 K, m1 = 0.066 | 1010.33 | 1510.3 m/s | 0.924 mPa·s and 1.029 mPa·s
298.15 K, m1 = 0.0754 | 1012.19 | 1512 m/s | 0.93 mPa·s and 1.033 mPa·s
298.15 K, m1 = 0.0849 | 1014.06 | 1513.9 m/s | 0.935 mPa·s and 1.037 mPa·s
298.15 K, m1 = 0.0943 | 1015.89 | 1515.7 m/s | 0.942 mPa·s and 1.041 mPa·s
298.15 K, m1 = 0.2984 | 1054.02 | 1552.8 m/s | 1.065 mPa·s and 1.132 mPa·s
298.15 K, m1 = 0.3971 | 1071.35 | 1570.1 m/s | 1.13 mPa·s and 1.183 mPa·s
298.15 K, m1 = 0.4955 | 1088.07 | 1587 m/s | 1.2 mPa·s and 1.238 mPa·s
298.15 K, m1 = 0.5936 | 1104.21 | 1603.8 m/s | 1.274 mPa·s and 1.295 mPa·s
298.15 K, m1 = 0.7877 | 1134.65 | 1636.2 m/s | 1.423 mPa·s and 1.441 mPa·s
298.15 K, m1 = 0.9823 | 1163.14 | 1667.5 m/s | 1.575 mPa·s and 1.624 mPa·s
298.15 K, m1 = 1.175 | 1189.77 | – | 1.733 mPa·s and 1.837 mPa·s
298.15 K, m1 = 1.366 | 1214.46 | – | 1.92 mPa·s and 2.072 mPa·s
298.15 K, m1 = 1.555 | 1237.68 | – | 2.121 mPa·s and 2.334 mPa·s
298.15 K, m1 = 1.837 | 1269.96 | – | 2.476 mPa·s and 2.788 mPa·s
303.15 K, m1 = 0.0472 | 1005.15 | 1518.1 m/s | 0.821 mPa·s
303.15 K, m1 = 0.0566 | 1007.02 | 1519.9 m/s | 0.822 mPa·s
303.15 K, m1 = 0.066 | 1008.87 | 1521.7 m/s | 0.825 mPa·s
303.15 K, m1 = 0.0754 | 1010.72 | 1523.5 m/s | 0.832 mPa·s
303.15 K, m1 = 0.0849 | 1012.58 | 1525.3 m/s | 0.837 mPa·s
303.15 K, m1 = 0.0943 | 1014.42 | 1527 m/s | 0.843 mPa·s
303.15 K, m1 = 0.2984 | 1052.39 | 1563.6 m/s | 0.956 mPa·s
303.15 K, m1 = 0.3971 | 1069.63 | 1580.3 m/s | 1.016 mPa·s
303.15 K, m1 = 0.4955 | 1086.25 | 1596.8 m/s | 1.08 mPa·s
303.15 K, m1 = 0.5936 | 1102.31 | 1613.3 m/s | 1.145 mPa·s
303.15 K, m1 = 0.7877 | 1132.65 | 1644.5 m/s | 1.295 mPa·s
303.15 K, m1 = 0.9823 | 1161.02 | 1674.8 m/s | 1.458 mPa·s
303.15 K, m1 = 1.175 | 1187.66 | 1697.5 m/s | 1.647 mPa·s
303.15 K, m1 = 1.366 | 1212.46 | 1725.7 m/s | 1.853 mPa·s
303.15 K, m1 = 1.555 | 1235.64 | 1752.6 m/s | 2.085 mPa·s
303.15 K, m1 = 1.837 | 1267.94 | 1790.3 m/s | 2.484 mPa·s
308.15 K, m1 = 0.0472 | 1003.5 | 1529 m/s | 0.739 mPa·s
308.15 K, m1 = 0.0566 | 1005.36 | 1530.8 m/s | 0.741 mPa·s
308.15 K, m1 = 0.066 | 1007.2 | 1532.5 m/s | 0.744 mPa·s
308.15 K, m1 = 0.0754 | 1009.04 | 1534.2 m/s | 0.749 mPa·s
308.15 K, m1 = 0.0849 | 1010.89 | 1535.9 m/s | 0.754 mPa·s
308.15 K, m1 = 0.0943 | 1012.72 | 1537.6 m/s | 0.76 mPa·s
308.15 K, m1 = 0.2984 | 1050.43 | 1572.8 m/s | 0.861 mPa·s
308.15 K, m1 = 0.3971 | 1067.62 | 1589 m/s | 0.916 mPa·s
308.15 K, m1 = 0.4955 | 1084.2 | 1605.1 m/s | 0.975 mPa·s
308.15 K, m1 = 0.5936 | 1100.17 | 1620.8 m/s | 1.036 mPa·s
308.15 K, m1 = 0.7877 | 1130.41 | 1651.3 m/s | 1.168 mPa·s
308.15 K, m1 = 0.9823 | 1158.81 | 1681 m/s | 1.316 mPa·s
308.15 K, m1 = 1.175 | 1185.33 | 1704 m/s | 1.486 mPa·s
308.15 K, m1 = 1.366 | 1210.05 | 1731.7 m/s | 1.671 mPa·s
308.15 K, m1 = 1.555 | 1233.31 | 1757.9 m/s | 1.875 mPa·s
308.15 K, m1 = 1.837 | 1265.24 | 1794.7 m/s | 2.231 mPa·s
313.15 K, m1 = 0.0472 | 1001.66 | 1538.1 m/s | 0.665 mPa·s
313.15 K, m1 = 0.0566 | 1003.51 | 1539.8 m/s | 0.668 mPa·s
313.15 K, m1 = 0.066 | 1005.35 | 1541.4 m/s | 0.672 mPa·s
313.15 K, m1 = 0.0754 | 1007.18 | 1543 m/s | 0.675 mPa·s
313.15 K, m1 = 0.0849 | 1009.03 | 1544.7 m/s | 0.68 mPa·s
313.15 K, m1 = 0.0943 | 1010.86 | 1546.4 m/s | 0.684 mPa·s
313.15 K, m1 = 0.2984 | 1048.42 | 1580.5 m/s | 0.783 mPa·s
313.15 K, m1 = 0.3971 | 1065.62 | 1596.5 m/s | 0.832 mPa·s
313.15 K, m1 = 0.4955 | 1082.12 | 1612 m/s | 0.887 mPa·s
313.15 K, m1 = 0.5936 | 1098.03 | 1627.4 m/s | 0.94 mPa·s
313.15 K, m1 = 0.7877 | 1128.2 | 1657.5 m/s | 1.063 mPa·s
313.15 K, m1 = 0.9823 | 1156.41 | 1686.1 m/s | 1.196 mPa·s
313.15 K, m1 = 1.175 | 1182.97 | 1709.4 m/s and 1714 m/s | 1.351 mPa·s
313.15 K, m1 = 1.366 | 1207.69 | 1736.3 m/s and 1740.3 m/s | 1.516 mPa·s
313.15 K, m1 = 1.555 | 1230.6 | 1762.1 m/s and 1765.2 m/s | 1.697 mPa·s
313.15 K, m1 = 1.837 | 1262.83 | 1797.6 m/s and 1800.3 m/s | 2.013 mPa·s
